In brackets after ≈: the same amount, converted by molar mass.
Key:
[1] = test system: Enterococcus faecalis (ATCC 29212); test: Antibiotic susceptibility by glucose consumption in culture medium, blood culture bottle inoculum (Example 1); assay type: cell-based; conditions: for Glucose concentration t=0: 0 minutes; for Glucose concentration t=60: 60 minutes; for Glucose concentration t=120: 120 minutes; for Glucose concentration t=180: 180 minutes; for Glucose concentration t=240: 240 minutes; for dC/dT: rate of change in glucose concentration;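 as to dC/dT: rate calculated between the 60 and 180 min readings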
Protocol: (§1) Strains of Escherichia coli (ATCC 25922), Enterococcus faecalis (ATCC 29212) and Staphylococcus aureus (ATCC 29213) were inoculated in blood culture bottles (SVA, Uppsala, Sweden) and cultivated according to the manufacturer's instructions until positive.
(§2) Medium from each blood culture bottle was diluted 1:100 with cation adjusted Mueller-Hinton broth (SVA, Uppsala, Sweden) supplemented with glucose to a concentration of 1.0 mg/mL.
(§3) Table 1: Concentrations of antibiotic agents are given in µg/mL.
(§4) Glucose concentrations were measured at 0, 60, 120, 180, and 240 minutes using a WaveSense Jazz glucometer (AgaMatrix, Inc., Salem, NH, USA) with accompanying test strips.
(§5) Susceptibility scores corresponding to MIC values were calculated as described above. A 80% threshold was applied, i.e. the lowest concentration of antibiotic that entailed a rate of change in glucose concentration that was equal to or less than 80% of the reference was selected as the Minimal Inhibitory Concentration. The rate of change was calculated between the measurements at 60 and 180 minutes.

[2] = test system: Escherichia coli (ATCC 25922); test: as above; assay type: cell-based; conditions: for Glucose concentration t=0: 0 minutes; for Glucose concentration t=60: 60 minutes; for Glucose concentration t=120: 120 minutes; for Glucose concentration t=180: 180 minutes; for dC/dT: rate of change in glucose concentration; for Glucose concentration t=240: 240 minutes;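 as to dC/dT: rate calculated between the 60 and 180 min readings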
Protocol: as §1, §2, §3, §4, §5

CO[C@@]1(NC(=O)Cc2cccs2)C(=O)N2C(C(=O)O)=C(COC(N)=O)CS[C@@H]21 [Cefoxitin]
MIC ([1]; Enterococcus faecalis, ATCC29212, E.faecalis, initial value, disregarded because rate of decrease was higher at 32 µg/mL, read-out: MIC value initially obtained): 4 µg/mL (≈ 9.36 µM) | F=the rate of change in glucose concentration in relation to the reference ([1]; [Ab] 0,5 µg/mL): 88% | Glucose concentration t=0 ([1]; [Ab] 0,5 µg/mL): 145 | Glucose concentration t=60 ([1]; [Ab] 0,5 µg/mL): 150 | Glucose concentration t=120 ([1]; [Ab] 0,5 µg/mL): 144 | Glucose concentration t=180 ([1]; [Ab] 0,5 µg/mL): 87 | Glucose concentration t=240 ([1]; [Ab] 0,5 µg/mL): 32 | dC/dT ([1]; [Ab] 0,5 µg/mL): 32 | F=the rate of change in glucose concentration in relation to the reference ([1]; [Ab] 0,25 µg/mL): 93% | Glucose concentration t=0 ([1]; [Ab] 0,25 µg/mL): 151 | Glucose concentration t=60 ([1]; [Ab] 0,25 µg/mL): 155 | Glucose concentration t=120 ([1]; [Ab] 0,25 µg/mL): 138 | Glucose concentration t=180 ([1]; [Ab] 0,25 µg/mL): 88 | Glucose concentration t=240 ([1]; [Ab] 0,25 µg/mL): 34 | dC/dT ([1]; [Ab] 0,25 µg/mL): 34 | F=the rate of change in glucose concentration in relation to the reference ([1]; [Ab] 1 µg/mL): 85% | Glucose concentration t=0 ([1]; [Ab] 1 µg/mL): 148 | Glucose concentration t=60 ([1]; [Ab] 1 µg/mL): 159 | Glucose concentration t=120 ([1]; [Ab] 1 µg/mL): 142 | Glucose concentration t=180 ([1]; [Ab] 1 µg/mL): 98 | Glucose concentration t=240 ([1]; [Ab] 1 µg/mL): 31 | dC/dT ([1]; [Ab] 1 µg/mL): 31 | F=the rate of change in glucose concentration in relation to the reference ([1]; [Ab] 2 µg/mL): 99% | Glucose concentration t=0 ([1]; [Ab] 2 µg/mL): 149 | Glucose concentration t=60 ([1]; [Ab] 2 µg/mL): 169 | Glucose concentration t=120 ([1]; [Ab] 2 µg/mL): 145 | Glucose concentration t=180 ([1]; [Ab] 2 µg/mL): 98 | Glucose concentration t=240 ([1]; [Ab] 2 µg/mL): 36 | dC/dT ([1]; [Ab] 2 µg/mL): 36 | F=the rate of change in glucose concentration in relation to the reference ([1]; [Ab] 4 µg/mL): 74% | Glucose concentration t=0 ([1]; [Ab] 4 µg/mL): 150 | Glucose concentration t=60 ([1]; [Ab] 4 µg/mL): 159 | Glucose concentration t=120 ([1]; [Ab] 4 µg/mL): 146 | Glucose concentration t=180 ([1]; [Ab] 4 µg/mL): 106 | Glucose concentration t=240 ([1]; [Ab] 4 µg/mL): 27 | dC/dT ([1]; [Ab] 4 µg/mL): 27 | F=the rate of change in glucose concentration in relation to the reference ([1]; [Ab] 8 µg/mL): 63% | Glucose concentration t=0 ([1]; [Ab] 8 µg/mL): 144 | Glucose concentration t=60 ([1]; [Ab] 8 µg/mL): 149 | Glucose concentration t=120 ([1]; [Ab] 8 µg/mL): 147 | Glucose concentration t=180 ([1]; [Ab] 8 µg/mL): 104 | Glucose concentration t=240 ([1]; [Ab] 8 µg/mL): 23 | dC/dT ([1]; [Ab] 8 µg/mL): 23 | F=the rate of change in glucose concentration in relation to the reference ([1]; [Ab] 16 µg/mL): 68% | Glucose concentration t=0 ([1]; [Ab] 16 µg/mL): 148 | Glucose concentration t=60 ([1]; [Ab] 16 µg/mL): 154 | Glucose concentration t=120 ([1]; [Ab] 16 µg/mL): 148 | Glucose concentration t=180 ([1]; [Ab] 16 µg/mL): 105 | Glucose concentration t=240 ([1]; [Ab] 16 µg/mL): 25 | dC/dT ([1]; [Ab] 16 µg/mL): 25 | F=the rate of change in glucose concentration in relation to the reference ([1]; [Ab] 32 µg/mL): 74% | Glucose concentration t=0 ([1]; [Ab] 32 µg/mL): 148 | Glucose concentration t=60 ([1]; [Ab] 32 µg/mL): 155 | Glucose concentration t=120 ([1]; [Ab] 32 µg/mL): 140 | Glucose concentration t=180 ([1]; [Ab] 32 µg/mL): 102 | Glucose concentration t=240 ([1]; [Ab] 32 µg/mL): 27 | dC/dT ([1]; [Ab] 32 µg/mL): 27 | MIC ([2]; Escherichia coli, ATCC25922, E.coli, 80% threshold of rate of change vs reference, between 60 and 180 minutes, obtained in 4 hours, read-out: MIC Measured): 4 µg/mL (≈ 9.36 µM) | F=the rate of change in glucose concentration in relation to the reference ([2]; [Ab] 0,5 µg/mL): 139% | Glucose concentration t=0 ([2]; [Ab] 0,5 µg/mL): 139 | Glucose concentration t=60 ([2]; [Ab] 0,5 µg/mL): 154 | Glucose concentration t=120 ([2]; [Ab] 0,5 µg/mL): 140 | Glucose concentration t=180 ([2]; [Ab] 0,5 µg/mL): 54 | dC/dT ([2]; [Ab] 0,5 µg/mL): 86 | F=the rate of change in glucose concentration in relation to the reference ([2]; [Ab] 0,25 µg/mL): 165% | Glucose concentration t=0 ([2]; [Ab] 0,25 µg/mL): 145 | Glucose concentration t=60 ([2]; [Ab] 0,25 µg/mL): 157 | Glucose concentration t=120 ([2]; [Ab] 0,25 µg/mL): 143 | Glucose concentration t=180 ([2]; [Ab] 0,25 µg/mL): 41 | dC/dT ([2]; [Ab] 0,25 µg/mL): 102 | F=the rate of change in glucose concentration in relation to the reference ([2]; [Ab] 1 µg/mL): 129% | Glucose concentration t=0 ([2]; [Ab] 1 µg/mL): 144 | Glucose concentration t=60 ([2]; [Ab] 1 µg/mL): 150 | Glucose concentration t=120 ([2]; [Ab] 1 µg/mL): 143 | Glucose concentration t=180 ([2]; [Ab] 1 µg/mL): 63 | dC/dT ([2]; [Ab] 1 µg/mL): 80 | F=the rate of change in glucose concentration in relation to the reference ([2]; [Ab] 2 µg/mL): 102% | Glucose concentration t=0 ([2]; [Ab] 2 µg/mL): 143 | Glucose concentration t=60 ([2]; [Ab] 2 µg/mL): 163 | Glucose concentration t=120 ([2]; [Ab] 2 µg/mL): 138 | Glucose concentration t=180 ([2]; [Ab] 2 µg/mL): 75 | dC/dT ([2]; [Ab] 2 µg/mL): 63 | F=the rate of change in glucose concentration in relation to the reference ([2]; [Ab] 4 µg/mL): 19% | Glucose concentration t=0 ([2]; [Ab] 4 µg/mL): 146 | Glucose concentration t=60 ([2]; [Ab] 4 µg/mL): 149 | Glucose concentration t=120 ([2]; [Ab] 4 µg/mL): 140 | Glucose concentration t=180 ([2]; [Ab] 4 µg/mL): 125 | Glucose concentration t=240 ([2]; [Ab] 4 µg/mL): 116 | dC/dT ([2]; [Ab] 4 µg/mL): 12 | F=the rate of change in glucose concentration in relation to the reference ([2]; [Ab] 8 µg/mL): 18% | Glucose concentration t=0 ([2]; [Ab] 8 µg/mL): 145 | Glucose concentration t=60 ([2]; [Ab] 8 µg/mL): 164 | Glucose concentration t=120 ([2]; [Ab] 8 µg/mL): 149 | Glucose concentration t=180 ([2]; [Ab] 8 µg/mL): 132 | Glucose concentration t=240 ([2]; [Ab] 8 µg/mL): 127 | dC/dT ([2]; [Ab] 8 µg/mL): 11 | F=the rate of change in glucose concentration in relation to the reference ([2]; [Ab] 16 µg/mL): 6% | Glucose concentration t=0 ([2]; [Ab] 16 µg/mL): 142 | Glucose concentration t=60 ([2]; [Ab] 16 µg/mL): 152 | Glucose concentration t=120 ([2]; [Ab] 16 µg/mL): 152 | Glucose concentration t=180 ([2]; [Ab] 16 µg/mL): 141 | Glucose concentration t=240 ([2]; [Ab] 16 µg/mL): 145 | dC/dT ([2]; [Ab] 16 µg/mL): 4 | F=the rate of change in glucose concentration in relation to the reference ([2]; [Ab] 32 µg/mL): 5% | Glucose concentration t=0 ([2]; [Ab] 32 µg/mL): 146 | Glucose concentration t=60 ([2]; [Ab] 32 µg/mL): 150 | Glucose concentration t=120 ([2]; [Ab] 32 µg/mL): 143 | Glucose concentration t=180 ([2]; [Ab] 32 µg/mL): 142 | Glucose concentration t=240 ([2]; [Ab] 32 µg/mL): 137 | dC/dT ([2]; [Ab] 32 µg/mL): 3
